From the supplement of paper PMC10307832

Assays:
Assay in all cases: relative viability (nuclei count vs DMSO), 5 days (fraction); higher = more cells survive
Vorinostat + Crizotinib = compound: O=C(CCCCCCC(=O)Nc1ccccc1)NO [Vorinostat] + C[C@@H](Oc1cc(-c2cnn(C3CCNCC3)c2)cnc1N)c1c(Cl)ccc(F)c1Cl [Crizotinib] (partner 1 µM)
Outline: (§1)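 Nuclei were stained with Hoechst during a one-step fixation (final 0.05% Triton X-100, 1% formaldehyde, 1 ug/ml Hoechst) carried out 5 days after dosing, then counted on 4× images. The cells, lung cancer lines in 1536-well plates, had been dosed by pin tool the day after seeding with one drug alone or a fixed anchor-drug dose plus five library-drug doses (not always all listed) in √10 steps. Relative viability is the nuclei count in treated wells divided by that in vehicle wells, and each value is the median of duplicate plates.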

Vorinostat + Olaparib = compound: O=C(CCCCCCC(=O)Nc1ccccc1)NO [Vorinostat] + O=C(c1cc(Cc2n[nH]c(=O)c3ccccc23)ccc1F)N1CCN(C(=O)C2CC2)CC1 [Olaparib] (partner 8 µM)
Outline: as §1

Vorinostat + Pemetrexed = compound: O=C(CCCCCCC(=O)Nc1ccccc1)NO [Vorinostat] + Nc1nc2[nH]cc(CCc3ccc(C(=O)N[C@@H](CCC(=O)O)C(=O)O)cc3)c2c(=O)[nH]1 [Pemetrexed] (partner 0.2 µM)
Outline: as §1

Vorinostat + Luminespib = compound: O=C(CCCCCCC(=O)Nc1ccccc1)NO [Vorinostat] + CCNC(=O)c1noc(-c2cc(C(C)C)c(O)cc2O)c1-c1ccc(CN2CCOCC2)cc1 [Luminespib] (partner 0.01 µM)
Outline: as §1

Vorinostat + Palbociclib = compound: O=C(CCCCCCC(=O)Nc1ccccc1)NO [Vorinostat] + CC(=O)c1c(C)c2cnc(Nc3ccc(N4CCNCC4)cn3)nc2n(C2CCCC2)c1=O [Palbociclib] (partner 0.5 µM)
Outline: as §1

| Cell Line | relative viability (Vorinostat + Crizotinib; first compound 0.253 µM) | relative viability (Vorinostat + Crizotinib; first compound 0.8 µM) | relative viability (Vorinostat + Crizotinib; first compound 2.53 µM) | relative viability (Vorinostat + Crizotinib; first compound 8 µM) | relative viability (Vorinostat + Olaparib; first compound 0.253 µM) | relative viability (Vorinostat + Olaparib; first compound 0.8 µM) | relative viability (Vorinostat + Olaparib; first compound 2.53 µM) | relative viability (Vorinostat + Olaparib; first compound 8 µM) | relative viability (Vorinostat + Pemetrexed; first compound 0.253 µM) | relative viability (Vorinostat + Pemetrexed; first compound 0.8 µM) | relative viability (Vorinostat + Pemetrexed; first compound 2.53 µM) | relative viability (Vorinostat + Pemetrexed; first compound 8 µM) | relative viability (Vorinostat + Luminespib; first compound 0.253 µM) | relative viability (Vorinostat + Luminespib; first compound 0.8 µM) | relative viability (Vorinostat + Luminespib; first compound 2.53 µM) | relative viability (Vorinostat + Luminespib; first compound 8 µM) | relative viability (Vorinostat + Palbociclib; first compound 0.253 µM) | relative viability (Vorinostat + Palbociclib; first compound 0.8 µM) | relative viability (Vorinostat + Palbociclib; first compound 2.53 µM) | relative viability (Vorinostat + Palbociclib; first compound 8 µM) |
| --- | --- | --- | --- | --- | --- | --- | --- | --- | --- | --- | --- | --- | --- | --- | --- | --- | --- | --- | --- | --- |
| LCLC-103H | 1.12 | 1.13 | 0.737 | 0.254 | 0.844 | 0.737 | 0.413 | 0.247 | 0.471 | 0.425 | 0.452 | 0.32 | 0.987 | 0.939 | 0.185 | 0.145 | 0.494 | 0.424 | 0.368 | 0.302 |
| EKVX | 0.958 | 0.891 | 0.428 | 0.152 | 1.02 | 0.833 | 0.335 | 0.15 | 0.384 | 0.413 | 0.386 | 0.146 | 0.984 | 0.952 | 0.659 | 0.17 | 0.401 | 0.398 | 0.199 | 0.125 |
| LXF-289 | 0.904 | 0.76 | 0.273 | 0.0737 | 1.11 | 1.02 | 0.148 | 0.0576 | 0.905 | 0.794 | 0.554 | 0.0613 | 0.763 | 0.596 | 0.299 | 0.0958 | 0.65 | 0.599 | 0.476 | 0.0862 |
| HCC-827 | 0.97 | 0.964 | 0.581 | 0.174 | 0.776 | 0.632 | 0.344 | 0.15 | 0.269 | 0.278 | 0.212 | 0.153 | 0.655 | 0.641 | 0.257 | 0.168 | 0.576 | 0.506 | 0.333 | 0.135 |
| NCI-H3122 | 0.311 | 0.317 | 0.227 | 0.198 | 0.543 | 0.574 | 0.319 | 0.0668 | 0.199 | 0.199 | 0.174 | 0.0738 | 0.0783 | 0.0802 | 0.0456 | 0.0728 | 0.19 | 0.254 | 0.142 | 0.0743 |
| HCC-15 | 0.919 | 0.879 | 0.496 | 0.0884 | 0.672 | 0.631 | 0.35 | 0.106 | 0.219 | 0.216 | 0.172 | 0.099 | 0.526 | 0.565 | 0.361 | 0.148 | 0.748 | 0.688 | 0.281 | 0.101 |
| NCI-H441 | 0.722 | 0.776 | 0.141 | 0.11 | 0.56 | 0.542 | 0.17 | 0.0865 | 0.252 | 0.232 | 0.253 | 0.143 | 0.485 | 0.423 | 0.194 | 0.162 | 0.241 | 0.249 | 0.157 | 0.101 |
| H3255 | 1.02 | 0.817 | 0.411 | 0.225 | 0.588 | 0.52 | 0.326 | 0.222 | 0.656 | 0.573 | 0.56 | 0.289 | 0.743 | 0.808 | 0.602 | 0.315 | 0.349 | 0.337 | 0.303 | 0.232 |
| NCI-H322M | 0.888 | 0.758 | 0.447 | 0.194 | 0.9 | 0.873 | 0.498 | 0.386 | 0.764 | 0.603 | 0.569 | 0.355 | 1.25 | 1.11 | 0.731 | 0.28 | 0.487 | 0.445 | 0.418 | 0.356 |
| NCI-H838 | 0.986 | 0.76 | 0.241 | 0.105 | 0.87 | 0.785 | 0.222 | 0.153 | 0.258 | 0.269 | 0.19 | 0.167 | 0.287 | 0.207 | 0.199 | 0.118 | 0.262 | 0.218 | 0.183 | 0.116 |
| NCI-H2170 | 1.29 | 0.967 | 0.229 | 0.149 | 0.632 | 0.554 | 0.146 | 0.0982 | 0.249 | 0.242 | 0.222 | 0.114 | 0.894 | 0.692 | 0.577 | 0.171 | 0.407 | 0.345 | 0.253 | 0.102 |
| NCI-H1734 | 0.779 | 0.683 | 0.214 | 0.127 | 0.739 | 0.66 | 0.31 | 0.0928 | 0.44 | 0.413 | 0.408 | 0.131 | 0.24 | 0.185 | 0.165 | 0.0945 | 0.402 | 0.34 | 0.253 | 0.133 |
| NCI-H23 | 0.525 | 0.381 | 0.102 | 0.116 | 0.317 | 0.239 | 0.0822 | 0.084 | 0.842 | 0.713 | 0.32 | 0.181 | 0.197 | 0.25 | 0.191 | 0.164 | 0.696 | 0.622 | 0.154 | 0.137 |
| A-427 | 0.954 | 0.847 | 0.274 | 0.096 | 0.71 | 0.789 | 0.468 | 0.21 | 1.02 | 0.925 | 0.433 | 0.196 | 1.03 | 0.892 | 0.339 | 0.158 | 0.522 | 0.496 | 0.331 | 0.227 |
| NCI-H460 | 1.05 | 0.336 | 0.0241 | 0.0093 | 0.396 | 0.175 | 0.064 | 0.0336 | 0.0729 | 0.064 | 0.0548 | 0.0231 | 0.0445 | 0.0295 | 0.0322 | 0.0199 | 0.146 | 0.0944 | 0.0356 | 0.011 |
| HCC-44 | 0.728 | 0.783 | 0.224 | 0.0957 | 1.04 | 1.05 | 0.658 | 0.317 | 0.663 | 0.683 | 0.628 | 0.485 | 1.23 | 0.804 | 0.205 | 0.141 | 0.989 | 0.969 | 0.812 | 0.301 |
| NCI-H2085 | 0.8 | 0.831 | 0.436 | 0.181 | 0.803 | 0.79 | 0.442 | 0.219 | 1.02 | 0.738 | 0.45 | 0.18 | 0.447 | 0.411 | 0.317 | 0.19 | 0.464 | 0.419 | 0.302 | 0.172 |
| NCI-H2405 | 0.917 | 0.88 | 0.415 | 0.0921 | 1.02 | 0.888 | 0.313 | 0.0962 | 1.18 | 1.1 | 0.357 | 0.122 | 0.995 | 1.03 | 0.596 | 0.164 | 0.604 | 0.627 | 0.286 | 0.13 |
| BEN | 1.06 | 0.553 | 0.147 | 0.0454 | 1.15 | 0.791 | 0.281 | 0.1 | 0.712 | 0.572 | 0.474 | 0.145 | 0.454 | 0.176 | 0.223 | 0.0986 | 0.433 | 0.455 | 0.301 | 0.155 |
| LCLC-97TM1 | – | 0.328 | 0.157 | 0.11 | 0.455 | 0.429 | 0.19 | 0.0482 | 0.155 | 0.149 | 0.146 | 0.0924 | 0.819 | 0.704 | 0.299 | 0.122 | 0.256 | 0.201 | 0.109 | 0.0671 |
| NCI-H1651 | 0.846 | 0.786 | 0.232 | 0.097 | 0.187 | 0.17 | 0.098 | 0.0473 | 0.614 | 0.577 | 0.377 | 0.0787 | 0.831 | 0.799 | 0.429 | 0.116 | 0.545 | 0.494 | 0.154 | 0.0594 |
| NCI-H1915 | 0.985 | 0.847 | 0.248 | 0.0881 | 0.231 | 0.175 | 0.113 | 0.0841 | 0.531 | 0.494 | 0.371 | 0.102 | 0.792 | 0.761 | 0.18 | 0.0892 | 0.563 | 0.436 | 0.167 | 0.0832 |
| UMC-11 | 0.578 | 0.481 | 0.0587 | 0.0369 | 0.374 | 0.235 | 0.0709 | 0.064 | 0.756 | 0.453 | 0.119 | 0.0862 | 1.03 | 0.566 | 0.149 | 0.108 | 0.356 | 0.233 | 0.179 | 0.116 |
| NCI-H358 | 0.526 | 0.393 | 0.133 | 0.134 | 0.722 | 0.609 | 0.227 | 0.0636 | 0.155 | 0.155 | 0.152 | 0.0859 | 0.429 | 0.521 | 0.308 | 0.126 | 0.139 | 0.167 | 0.101 | 0.0793 |
| NCI-H650 | 0.716 | 0.503 | 0.155 | 0.165 | 0.375 | 0.275 | 0.121 | 0.129 | 0.953 | 0.918 | 0.287 | 0.11 | 0.773 | 0.808 | 0.201 | 0.155 | 0.338 | 0.319 | 0.159 | 0.118 |
| NCI-H2228 | 0.593 | 0.502 | 0.246 | 0.168 | 0.501 | 0.499 | 0.223 | 0.124 | 0.336 | 0.297 | 0.252 | 0.132 | 0.138 | 0.172 | 0.168 | 0.113 | 0.713 | 0.431 | 0.22 | 0.0631 |
| LU99A | 0.523 | 0.44 | 0.236 | 0.146 | 0.232 | 0.177 | 0.104 | 0.101 | 0.14 | 0.182 | 0.162 | 0.112 | 0.291 | 0.26 | 0.141 | 0.121 | 0.389 | 0.375 | 0.272 | 0.104 |
